The source made the active and inactive calls. The calls are words filed in the database; no cut-off is given here.
What was measured:
Rattus norvegicus [1] = assay: In vivo inhibition of NHE3 in Sprague-Dawley rat assessed as inhibition of sodium absorption from intestinal lumen by measuring urinary sodium concentration at 10 mg/kg, po via gavage measured after 16 hrs relative to control; type: functional; parameters: scale not given: the % may be the effect or the level left
Rattus norvegicus [2] = assay: In vivo inhibition of NHE3 in Sprague-Dawley rat assessed as inhibition of sodium absorption from intestinal lumen by measuring urinary sodium concentration at 3 mg/kg, po via gavage measured after 16 hrs relative to control; type: functional; parameters: scale not given: the % may be the effect or the level left
Rattus norvegicus [3] = assay: In vivo inhibition of NHE3 in Sprague-Dawley rat assessed as inhibition of sodium absorption from intestinal lumen by measuring urinary sodium concentration at 1 mg/kg, po via gavage measured after 16 hrs relative to control; type: functional; parameters: scale not given: the % may be the effect or the level left
Rattus norvegicus [4] = assay: In vivo inhibition of NHE3 in rat assessed as inhibition of 33Pi uptake at 10 mg/kg, po measured up to 120 mins; type: functional, organism-based
Rattus norvegicus [5] = assay: Decrease in calcium urinary excretion in dietary salt-induced partial renal ablation Sprague-Dawley rat model of chronic kidney disease at 0.1 to 3 mg/kg/day added to normal chow pellets; type: functional, organism-based
Rattus norvegicus [6] = assay: Decrease in phosphorus urinary excretion in dietary salt-induced partial renal ablation Sprague-Dawley rat model of chronic kidney disease at 0.1 to 3 mg/kg/day added to normal chow pellets; type: functional, organism-based
[7] = Oral bioavailability in human; type: ADME, organism-based; settings: in vivo
[8] = target: T1, Sodium/hydrogen exchanger 5 (Homo sapiens, UniProt Q14940); assay: Inhibition of NHE5 (unknown origin)
T1 sequence (Q14940 whole entry): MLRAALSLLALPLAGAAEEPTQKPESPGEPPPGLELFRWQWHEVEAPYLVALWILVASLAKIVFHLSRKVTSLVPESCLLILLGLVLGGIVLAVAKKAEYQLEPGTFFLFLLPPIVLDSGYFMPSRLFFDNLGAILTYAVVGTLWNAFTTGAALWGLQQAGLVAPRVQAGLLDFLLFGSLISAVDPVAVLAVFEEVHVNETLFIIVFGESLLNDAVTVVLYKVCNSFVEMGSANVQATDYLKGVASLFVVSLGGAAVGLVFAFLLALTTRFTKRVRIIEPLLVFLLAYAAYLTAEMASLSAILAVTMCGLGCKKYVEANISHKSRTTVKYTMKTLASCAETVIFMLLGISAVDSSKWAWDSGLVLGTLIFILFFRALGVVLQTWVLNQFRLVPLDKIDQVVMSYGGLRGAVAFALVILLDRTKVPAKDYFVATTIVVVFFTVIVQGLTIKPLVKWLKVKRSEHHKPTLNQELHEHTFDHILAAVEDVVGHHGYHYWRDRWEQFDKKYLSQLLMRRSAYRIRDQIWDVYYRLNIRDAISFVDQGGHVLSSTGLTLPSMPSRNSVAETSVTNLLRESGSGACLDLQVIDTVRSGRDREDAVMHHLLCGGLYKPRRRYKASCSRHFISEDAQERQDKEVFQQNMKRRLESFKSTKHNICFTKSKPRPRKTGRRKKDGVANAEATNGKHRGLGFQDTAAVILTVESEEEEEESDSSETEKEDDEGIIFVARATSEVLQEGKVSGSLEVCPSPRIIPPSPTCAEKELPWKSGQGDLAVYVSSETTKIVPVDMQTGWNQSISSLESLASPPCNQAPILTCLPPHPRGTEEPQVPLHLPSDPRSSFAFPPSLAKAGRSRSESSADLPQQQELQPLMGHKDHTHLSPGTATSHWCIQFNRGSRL

[9] = target: T2, Sodium/hydrogen exchanger 2 (Oryctolagus cuniculus, UniProt P50482); assay: Inhibition of rabbit NHE2
T2 sequence (P50482 whole entry): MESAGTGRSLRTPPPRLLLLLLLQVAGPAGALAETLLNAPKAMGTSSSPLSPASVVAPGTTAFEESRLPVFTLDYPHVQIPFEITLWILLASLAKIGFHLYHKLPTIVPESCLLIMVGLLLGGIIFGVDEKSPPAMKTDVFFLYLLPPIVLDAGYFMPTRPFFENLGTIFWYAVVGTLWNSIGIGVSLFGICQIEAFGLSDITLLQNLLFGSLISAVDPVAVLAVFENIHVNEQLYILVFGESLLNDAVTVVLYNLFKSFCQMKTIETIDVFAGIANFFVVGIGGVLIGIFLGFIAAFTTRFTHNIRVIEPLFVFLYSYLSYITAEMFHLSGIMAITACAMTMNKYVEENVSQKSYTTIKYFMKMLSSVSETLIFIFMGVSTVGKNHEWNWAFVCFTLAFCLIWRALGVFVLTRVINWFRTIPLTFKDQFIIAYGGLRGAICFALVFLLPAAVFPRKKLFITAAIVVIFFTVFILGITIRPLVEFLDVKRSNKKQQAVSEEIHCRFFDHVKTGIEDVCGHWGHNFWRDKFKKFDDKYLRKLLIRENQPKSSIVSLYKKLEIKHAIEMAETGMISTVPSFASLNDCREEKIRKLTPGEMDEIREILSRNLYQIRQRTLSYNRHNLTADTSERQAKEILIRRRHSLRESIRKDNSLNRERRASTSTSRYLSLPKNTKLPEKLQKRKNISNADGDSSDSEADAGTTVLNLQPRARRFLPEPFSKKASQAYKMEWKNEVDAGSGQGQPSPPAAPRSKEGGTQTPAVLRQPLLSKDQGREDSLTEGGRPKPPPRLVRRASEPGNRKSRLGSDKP

[10] = target: Sodium/hydrogen exchanger 1 (Rattus norvegicus, UniProt P26431); assay: Inhibition of rat NHE1
Sodium/hydrogen exchanger 1, sequence (P26431 whole entry): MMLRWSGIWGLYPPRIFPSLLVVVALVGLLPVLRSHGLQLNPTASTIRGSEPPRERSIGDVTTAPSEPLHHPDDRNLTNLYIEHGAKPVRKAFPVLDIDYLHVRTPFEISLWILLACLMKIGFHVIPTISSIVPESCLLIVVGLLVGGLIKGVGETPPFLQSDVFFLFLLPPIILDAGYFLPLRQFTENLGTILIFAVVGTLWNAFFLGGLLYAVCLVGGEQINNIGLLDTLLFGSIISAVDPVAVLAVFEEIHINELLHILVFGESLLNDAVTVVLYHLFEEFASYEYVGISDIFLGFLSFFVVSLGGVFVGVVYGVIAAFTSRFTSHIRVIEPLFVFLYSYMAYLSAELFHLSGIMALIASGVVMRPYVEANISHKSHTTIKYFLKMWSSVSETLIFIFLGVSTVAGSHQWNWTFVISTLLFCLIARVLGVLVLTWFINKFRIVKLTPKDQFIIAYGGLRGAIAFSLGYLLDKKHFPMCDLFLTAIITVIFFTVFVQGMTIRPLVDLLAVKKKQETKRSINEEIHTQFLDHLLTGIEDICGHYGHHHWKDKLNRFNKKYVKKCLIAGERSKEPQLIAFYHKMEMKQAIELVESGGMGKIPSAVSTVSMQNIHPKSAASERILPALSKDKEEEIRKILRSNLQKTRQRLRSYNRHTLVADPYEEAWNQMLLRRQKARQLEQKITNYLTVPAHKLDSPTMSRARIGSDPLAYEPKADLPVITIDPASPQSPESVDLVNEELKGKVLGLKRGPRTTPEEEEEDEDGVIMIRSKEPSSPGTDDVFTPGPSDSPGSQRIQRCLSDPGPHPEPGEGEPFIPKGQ

[11] = target: Sodium/hydrogen exchanger 3 (Rattus norvegicus, UniProt P26433); assay: Inhibition of rat NHE3
Sodium/hydrogen exchanger 3, sequence (P26433 whole entry): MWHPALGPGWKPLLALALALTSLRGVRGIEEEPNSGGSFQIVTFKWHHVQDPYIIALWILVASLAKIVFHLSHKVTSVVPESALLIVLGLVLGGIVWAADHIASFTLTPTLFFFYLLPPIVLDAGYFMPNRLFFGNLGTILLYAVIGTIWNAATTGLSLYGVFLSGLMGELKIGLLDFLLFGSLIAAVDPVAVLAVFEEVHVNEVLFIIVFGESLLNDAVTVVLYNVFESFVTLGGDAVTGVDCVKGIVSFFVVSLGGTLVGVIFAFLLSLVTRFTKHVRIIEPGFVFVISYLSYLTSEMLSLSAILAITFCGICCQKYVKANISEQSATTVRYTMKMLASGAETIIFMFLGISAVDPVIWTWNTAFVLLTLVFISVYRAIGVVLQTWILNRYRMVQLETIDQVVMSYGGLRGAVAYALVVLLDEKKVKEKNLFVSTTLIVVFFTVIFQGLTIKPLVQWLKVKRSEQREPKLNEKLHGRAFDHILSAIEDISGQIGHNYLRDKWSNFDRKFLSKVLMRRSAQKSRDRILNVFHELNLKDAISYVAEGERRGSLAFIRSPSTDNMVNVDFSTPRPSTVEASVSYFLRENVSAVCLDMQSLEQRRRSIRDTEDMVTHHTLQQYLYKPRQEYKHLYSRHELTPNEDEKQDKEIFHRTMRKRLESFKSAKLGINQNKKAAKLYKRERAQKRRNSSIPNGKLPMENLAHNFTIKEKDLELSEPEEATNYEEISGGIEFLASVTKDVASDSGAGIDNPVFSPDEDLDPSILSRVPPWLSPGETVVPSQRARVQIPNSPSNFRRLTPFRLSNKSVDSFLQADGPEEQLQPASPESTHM

## CN1Cc2c(Cl)cc(Cl)cc2[C@H](c2cccc(S(=O)(=O)NCCOCCOCCNC(=O)CN3CCN(CC(=O)NCCOCCOCCOCCNS(=O)(=O)c4cccc([C@@H]5CN(C)Cc6c(Cl)cc(Cl)cc65)c4)CCN(CC(=O)NCCOCCOCCOCCNS(=O)(=O)c4cccc([C@@H]5CNCc6c(Cl)cc(Cl)cc65)c4)CCN(CC(=O)NCCOCCOCCOCCNS(=O)(=O)c4cccc([C@@H]5CN(C)Cc6c(Cl)cc(Cl)cc65)c4)CC3)c2)C1
Rattus norvegicus [1]
  Activity: 82%

## CN1Cc2c(Cl)cc(Cl)cc2[C@H](c2cccc(S(=O)(=O)NCCOCCNC(=O)CCC(CCC(=O)NCCOCCOCCNS(=O)(=O)c3cccc([C@@H]4CN(C)Cc5c(Cl)cc(Cl)cc54)c3)(CCC(=O)NCCOCCOCCNS(=O)(=O)c3cccc([C@@H]4CN(C)Cc5c(Cl)cc(Cl)cc54)c3)NC(=O)[C@H]3CCCC[C@@H]3C(=O)O)c2)C1
Rattus norvegicus [2]
  Activity: 63%

## O=C(NCCCCNC(=O)NCCOCCOCCNS(=O)(=O)c1ccc(O[C@H]2c3cc(Cl)cc(Cl)c3C[C@@H]2N2CC[C@@H](O)C2)cc1)NCCOCCOCCNS(=O)(=O)c1ccc(O[C@H]2c3cc(Cl)cc(F)c3C[C@@H]2N2CC[C@@H](O)C2)cc1
Rattus norvegicus [1]
  Activity: 104%

## CN1Cc2c(Cl)cc(Cl)cc2[C@@H](c2ccc(S(=O)(=O)NCCOCCOCCNC(=O)NCCCCNC(=O)NCCOCCOCCNS(=O)(=O)c3cccc([C@@H]4CN(C)Cc5c(Cl)cc(Cl)cc54)c3)cc2)C1.Cl.Cl
Rattus norvegicus [1]
  Activity: 68%

## CN1Cc2c(Cl)cc(Cl)cc2[C@H](c2cccc(S(=O)(=O)NCCOCCOCCNC(=O)CCC(CCC(=O)NCCOCCOCCNS(=O)(=O)c3cccc([C@@H]4CN(C)Cc5c(Cl)cc(Cl)cc54)c3)(CC(=O)NCCOCCOCCNS(=O)(=O)c3cccc([C@@H]4CN(C)Cc5c(Cl)cc(Cl)cc54)c3)NC(=O)CCC(=O)O)c2)C1
Rattus norvegicus [2]
  Activity: 12%
Rattus norvegicus [3]
  Activity: 49%

## CN1Cc2c(Cl)cc(Cl)cc2[C@H](c2ccc(S(=O)(=O)N(C)CCOCCOCCNC(=O)CCN(CCC(=O)NCCOCCOCCN(C)S(=O)(=O)c3cccc([C@@H]4CN(C)Cc5c(Cl)cc(Cl)cc54)c3)CCC(=O)NCCOCCOCCN(C)S(=O)(=O)c3cccc([C@@H]4CN(C)Cc5c(Cl)cc(Cl)cc54)c3)cc2)C1
Rattus norvegicus [2]
  Activity: 64%

## CN1Cc2c(Cl)cc(Cl)cc2[C@H](c2ccc(S(=O)(=O)NCCOCCOCCNC(=O)NCCCCNC(=O)NCCOCCOCCNS(=O)(=O)c3cccc([C@@H]4CN(C)Cc5c(Cl)cc(Cl)cc54)c3)cc2)C1.Cl.Cl
Rattus norvegicus [1]
  Activity: 90%

## CN1Cc2c(Cl)cc(Cl)cc2[C@H](c2cccc(S(=O)(=O)NCCOCCOCCNC(=O)NCCN(CCNC(=O)NCCOCCOCCNS(=O)(=O)c3cccc([C@@H]4CN(C)Cc5c(Cl)cc(Cl)cc54)c3)C(=O)CCCOCCOCCOCCOCCC(=O)N(CCNC(=O)NCCOCCOCCNS(=O)(=O)c3cccc([C@@H]4CN(C)Cc5c(Cl)cc(Cl)cc54)c3)CCNC(=O)NCCOCCOCCNS(=O)(=O)c3cccc([C@@H]4CN(C)Cc5c(Cl)cc(Cl)cc54)c3)c2)C1
Rattus norvegicus [1]
  Activity: 47%

## CCCCCCCCOCCOCCOCCOCCCOCCOC(=O)NCCOCCOCCOCCNS(=O)(=O)c1cccc([C@@H]2CN(C)Cc3c(Cl)cc(Cl)cc32)c1
Rattus norvegicus [1]
  Activity: 86%

## CN1Cc2c(Cl)cc(Cl)cc2[C@@H](c2cccc(S(=O)(=O)NCCOCCOCCNC(=O)N(C)CCCN(CCCN(C)C(=O)NCCOCCOCCNS(=O)(=O)c3cccc([C@@H]4CN(C)Cc5c(Cl)cc(Cl)cc54)c3)C(=O)NCCOCCOCCNS(=O)(=O)c3cccc([C@@H]4CN(C)Cc5c(Cl)cc(Cl)cc54)c3)c2)C1
Rattus norvegicus [2]
  Activity: 55%
Rattus norvegicus [3]
  Activity: 88%
Rattus norvegicus [1]
  Activity: 28%

## CN1Cc2c(Cl)cc(Cl)cc2[C@H](c2ccc(S(=O)(=O)NCCOCCOCCNCCCC(CCC(=O)NCCOCCOCCNS(=O)(=O)c3cccc([C@@H]4CN(C)Cc5c(Cl)cc(Cl)cc54)c3)(CCC(=O)NCCOCCOCCNS(=O)(=O)c3cccc([C@@H]4CN(C)Cc5c(Cl)cc(Cl)cc54)c3)NC(=O)N3CCN(CCOCCO)CC3)cc2)C1
Rattus norvegicus [2]
  Activity: 31%

## CC(=O)C(CCNC(=O)NCCOCCOCCNS(=O)(=O)c1cccc([C@@H]2CN(C)Cc3c(Cl)cc(Cl)cc32)c1)(CCNC(=O)NCCOCCOCCNS(=O)(=O)c1cccc([C@@H]2CN(C)Cc3c(Cl)cc(Cl)cc32)c1)CCNC(=O)NCCOCCOCCNS(=O)(=O)c1cccc([C@@H]2CN(C)Cc3c(Cl)cc(Cl)cc32)c1
Rattus norvegicus [2]
  Activity: 42%

## CN1Cc2c(Cl)cc(Cl)cc2[C@@H](c2cccc(S(=O)(=O)NCCOCCOCCNC(=O)NCCCCNC(=O)NCCOCCOCCNS(=O)(=O)c3cccc([C@@H]4CN(C)Cc5c(Cl)cc(Cl)cc54)c3)c2)C1
Rattus norvegicus [4]
  inhibition: inactive

## CN1Cc2c(Cl)cc(Cl)cc2[C@H](c2cccc(S(=O)(=O)NCCOCCOCCNC(=O)NCCCCNC(=O)NCCOCCOCCNS(=O)(=O)c3cccc([C@@H]4CN(C)Cc5c(Cl)cc(Cl)cc54)c3)c2)C1
Rattus norvegicus [5]
  Activity: Active
Rattus norvegicus [6]
  Activity: Active

## OC[C@H]1O[C@@H](O[C@@H]2[C@@H](CO)O[C@](O)(CO)[C@H]2O)[C@H](O)[C@@H](O)[C@H]1O (mixture of isomers) [LACTULOSE]
[7]
  bioavailability: 0.6%

## C=CCc1ccccc1OCC(O)CNC(C)C (stereo unspecified) [ALPRENOLOL]
[7]
  bioavailability: 96%

## N=C(N)NC(=O)c1nc(Cl)c(N)nc1N [AMILORIDE]
[8]
  IC50: 21000 nM
[9]
  IC50: 1000 nM
[10]
  IC50: 1000 to 1600 nM
[11]
  IC50: > 100000 nM

## Cc1cc(=O)n(-c2ccccc2)n1C [ANTIPYRINE]
[7]
  bioavailability: 97%

## O=C(O)P(=O)(O)O [FOSCARNET]
[7]
  bioavailability: 17%

## OC[C@@H](O)[C@@H](O)[C@H](O)[C@H](O)CO [MANNITOL]
[7]
  bioavailability: 26%

## Cc1ccccc1N1C(=O)c2cc(S(N)(=O)=O)c(Cl)cc2NC1C (stereo unspecified) [METOLAZONE]
[7]
  bioavailability: 64%

## O=C(O)c1cc(/N=N/c2ccc(O)c(C(=O)O)c2)ccc1O [OLSALAZINE]
[7]
  bioavailability: 2.3%

## C=CCOc1ccccc1OCC(O)CNC(C)C (stereo unspecified) [OXPRENOLOL]
[7]
  bioavailability: 97%

## CC(C)NCC(O)COc1cccc2[nH]ccc12 (stereo unspecified) [PINDOLOL]
[7]
  bioavailability: 92%

## CC(=O)Nc1ccc(OCC(O)CNC(C)C)cc1 (stereo unspecified) [PRACTOLOL]
[7]
  bioavailability: 95%

## OC[C@H]1O[C@H](OC[C@H]2O[C@H](O[C@]3(CO)O[C@H](CO)[C@@H](O)[C@@H]3O)[C@H](O)[C@@H](O)[C@@H]2O)[C@H](O)[C@@H](O)[C@H]1O [RAFFINOSE]
[7]
  bioavailability: 0.3%

## O=C(O)c1cc(/N=N/c2ccc(S(=O)(=O)Nc3ccccn3)cc2)ccc1O [SULFASALAZINE]
[7]
  bioavailability: 12%

## CCN1CCCC1CNC(=O)c1cc(S(N)(=O)=O)ccc1OC (stereo unspecified) [SULPIRIDE]
[7]
  bioavailability: 36%

## NC[C@H]1CC[C@H](C(=O)O)CC1 [TRANEXAMIC ACID]
[7]
  bioavailability: 55%

— ChEMBL document CHEMBL4257082, “Nhe3-binding compounds and methods for inhibiting phosphate transport” (2016)
